Laboratory results taken from PMC9027957, “Interspecies Comparisons of the Effects of Potential Antiviral 3-Amidinophenylalanine Derivatives on Cytochrome P450 1A2 Isoenzyme” (Veterinary Sciences, 2022).

What was measured:
[1] = 60 min microsomal stability assay (UPLC-MS/MS), rat liver microsomes; assay type: in vitro ADME; details: rat microsomes, 50 µM, 0.6 mg/mL protein, mean ± SD (n = 3)
Method: (§1) Rat, beagle (Gibco, Biocenter, Szeged, Hungary), and cynomolgus monkey (Primacyt, Schwerin, Germany) liver microsomes were exposed to inhibitors MI-432, MI-463, MI-482, or MI-1900 at 50 µM for 60 min. The final microsomal protein concentration in the suspension was 0.6 mg/mL in each case. The reaction buffer (100 mM phosphate buffer pH 7.4) also contained 1 mM nicotinamide adenine dinucleotide phosphate (NADPH), 5 mM MgCl2, 10 mM glucose-6-phosphate (G6P), and 2 IU/mL glucose-6-phosphate dehydrogenase (G6PD). The reaction was terminated by the addition of ice-cold acetonitrile (ACN) with the ratio of sample ACN volume = 1:2. The precipitated protein was removed by centrifugation at 10,000× g for 10 min, and the supernatants were used for subsequent analyses.
(§2) The determination of all analytes was carried out using an UPLC/MS/MS system, which consisted of an HPLC apparatus (SCIEX ExionLC^TM UPLC, Framigham, MA, USA) and a SCIEX Qtrap 4500 triple-quadrupole mass spectrometer (Framigham, MA, USA) equipped with a SCIEX Turbo V electrospray ionization source. The HPLC columns used were LiChrospher RP Select B (125 × 4.0 mm, 5.0 μm, C8 stationary phase). Next, 0.1% trifluoroacetic acid in ultra-purified water (A) and acetonitrile (B) were used as mobile phases for chromatographic separations applying a gradient elution. The HPLC gradient program was the following: between 0 and 10 min, a ratio of 70% A and 30% B; from 10 to 20 min, linearly increasing to a ratio of 50% A and 50% B; from 20 to 21 min, maintained at a ratio of 50% A and 50% B; from 21 to 22 min, linearly decreasing back to a ratio of 70% A and 30% B; and between 22 min and 30 min, maintained at a ratio of 70% A and 30% B. The run time was 30 min, the column temperature was adjusted to 35 °C, and the flow rate was 1 mL/min.

[2] = 60 min microsomal stability assay (UPLC-MS/MS), beagle liver microsomes; assay type: in vitro ADME; details: beagle microsomes, 50 µM, 0.6 mg/mL protein, mean ± SD (n = 3)
Method: as §1, §2

[3] = 60 min microsomal stability assay (UPLC-MS/MS), cynomolgus monkey liver microsomes; assay type: in vitro ADME; details: monkey microsomes, 50 µM, 0.6 mg/mL protein, mean ± SD (n = 3)
Method: as §1, §2

[4] = molecular target: T1, CYP1A2 (Macaca fascicularis, UniProt O77809); assay: CYP1A2 fluorometric activity assay in cynomolgus monkey hepatic microsomes; assay type: in vitro ADME; parameters: cynomolgus monkey microsomal suspension (Primacyt, Schwerin, Germany, protein concentration: 5 mg/mL); tissue Primacyt, Schwerin, Germany; host or cells: liver (hepatic microsomes); details: for CYP1A2 in the cynomolgus monkey microsomal model: inhibitors at 50 µM
T1 sequence (O77809 1-516): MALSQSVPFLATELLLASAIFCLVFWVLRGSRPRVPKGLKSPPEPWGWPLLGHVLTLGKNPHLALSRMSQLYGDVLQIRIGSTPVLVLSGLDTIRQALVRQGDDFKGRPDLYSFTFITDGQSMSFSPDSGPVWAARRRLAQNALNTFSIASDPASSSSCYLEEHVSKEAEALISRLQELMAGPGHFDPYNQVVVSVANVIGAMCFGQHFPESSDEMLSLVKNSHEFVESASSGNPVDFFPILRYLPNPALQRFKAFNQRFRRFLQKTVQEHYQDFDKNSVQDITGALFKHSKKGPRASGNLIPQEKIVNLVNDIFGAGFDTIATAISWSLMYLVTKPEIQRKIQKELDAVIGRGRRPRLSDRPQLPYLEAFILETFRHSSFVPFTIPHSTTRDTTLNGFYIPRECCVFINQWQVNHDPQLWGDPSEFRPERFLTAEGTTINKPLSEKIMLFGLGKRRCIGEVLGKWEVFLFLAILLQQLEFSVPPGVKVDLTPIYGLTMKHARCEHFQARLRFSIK
Method: (§3) The Biovision CYP assay (BioVision, Inc., Kampenhout, Belgium) utilizes a non-fluorescent CYP1A2 substrate capable of transforming into a highly fluorescent metabolite, which can be detected in the visible range. α-naphthoflavone was used as a CYP1A2 reference inhibitor at 6 µM during the experiments. Rat (Sprague–Dawley) and beagle (Gibco, Biocenter, Szeged, Hungary, protein concentration: 20 mg/mL) hepatic microsomal preparations were prepared separately by mixing 25 µL of the obtained rat or beagle microsomal suspension with 2425 µL assay buffer and with 50 µL NADPH generating system (100×). In the case of the cynomolgus monkey microsomal suspension (Primacyt, Schwerin, Germany, protein concentration: 5 mg/mL), the following volumes were applied: in addition to 100 µL of monkey microsomal suspension, the amount of assay buffer and the NADPH generating system were adjusted in order to ensure the original ratios of these components to reach a final volume of 2500 µL. Rat, beagle, and cynomolgus monkey microsomal suspension aliquots (50 µL) were treated with the protease inhibitor 20 µL, 0–1000 µM), the reference compound α-naphthoflavone (20 µL, 30 µM), or the assay buffer without test compounds (20 µL, background control) for 15 min at 37 °C. After incubation, 30 µL of the appropriate CYP1A2 substrate/NADP+ mixture was added to each well, yielding a final reaction volume of 100 µL/well. The protein contents of the obtained microsomes were analysed using bicinchoninic acid protein assay kit (Pierce BCA kit, Thermo Fisher Scientific, Waltham, MA, USA). […] The fluorescence intensities were measured with a fluorometer (Victor X2 2030, Perkin Elmer, Waltham, MA, USA), using λEx/Em = 406/468 nm.

[5] = molecular target: T2, CYP1A2 (Rattus norvegicus, UniProt P04799); assay: CYP1A2 fluorometric activity assay in rat hepatic microsomes; assay type: in vitro ADME, rat (Sprague–Dawley); parameters: Rat (Sprague–Dawley) and beagle (Gibco, Biocenter, Szeged, Hungary, protein concentration: 20 mg/mL) hepatic microsomal preparations; tissue Gibco, Biocenter, Szeged, Hungary; host or cells: liver (hepatic microsomes), Sprague-Dawley rat; details: 15 min at 37 °C
T2 sequence (P04799 1-513): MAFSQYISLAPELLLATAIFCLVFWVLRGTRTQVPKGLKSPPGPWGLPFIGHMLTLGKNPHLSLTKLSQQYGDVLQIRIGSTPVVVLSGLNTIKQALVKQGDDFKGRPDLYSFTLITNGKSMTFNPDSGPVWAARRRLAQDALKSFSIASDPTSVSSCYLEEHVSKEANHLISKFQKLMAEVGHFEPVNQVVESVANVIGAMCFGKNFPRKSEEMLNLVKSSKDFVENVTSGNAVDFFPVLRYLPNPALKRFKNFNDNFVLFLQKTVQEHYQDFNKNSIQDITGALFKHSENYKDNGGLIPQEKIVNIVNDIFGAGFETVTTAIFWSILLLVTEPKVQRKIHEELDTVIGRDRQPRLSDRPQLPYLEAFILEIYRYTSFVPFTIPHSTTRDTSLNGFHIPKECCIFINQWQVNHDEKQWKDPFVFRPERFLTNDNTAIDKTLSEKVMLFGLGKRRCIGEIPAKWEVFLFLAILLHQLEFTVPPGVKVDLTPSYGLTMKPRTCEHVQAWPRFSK
Method: as §3

[6] = molecular target: T3, CYP1A2 (Canis lupus familiaris, UniProt P56592); assay: CYP1A2 fluorometric activity assay in beagle hepatic microsomes; assay type: in vitro ADME; details: 15 min at 37 °C
T3 construct: endogenous in cells; host or cells: beagle hepatocytes
T3 sequence (P56592 1-512): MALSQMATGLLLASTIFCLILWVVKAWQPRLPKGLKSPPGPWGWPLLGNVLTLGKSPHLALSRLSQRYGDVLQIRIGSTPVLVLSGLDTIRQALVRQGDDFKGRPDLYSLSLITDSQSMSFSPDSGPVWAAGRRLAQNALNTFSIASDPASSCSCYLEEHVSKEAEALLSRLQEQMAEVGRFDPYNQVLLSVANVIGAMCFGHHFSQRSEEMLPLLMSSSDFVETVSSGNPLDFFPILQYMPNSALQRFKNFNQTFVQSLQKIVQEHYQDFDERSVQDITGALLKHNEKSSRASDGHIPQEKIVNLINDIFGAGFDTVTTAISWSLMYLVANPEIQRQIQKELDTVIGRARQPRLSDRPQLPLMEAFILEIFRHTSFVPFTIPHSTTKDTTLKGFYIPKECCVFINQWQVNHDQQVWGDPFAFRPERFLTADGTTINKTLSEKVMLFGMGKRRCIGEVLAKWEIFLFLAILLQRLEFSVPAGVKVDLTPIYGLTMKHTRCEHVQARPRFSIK
Method: as §3

[7] = molecular target: T3, CYP1A2; assay type: cell-based; details: dog, 10 µM
Method: (§4) For the measurements of CYP1A2 activities, hepatocytes were grown on 24-well collagen-coated membrane inserts (Costar Transwell-PTFE membrane, 6.5 mm, pore size: 0.4 µm, Merck, Darmstadt, Germany). […] The determination of the CYP1A2 activities were performed using the P450-Glo CYP450 Assay (Promega, Madison, WI, USA) according to the manufacturer’s instructions.

[8] = molecular target: T1, CYP1A2; details: 10 µM
Method: as §4

[9] = molecular target: T2, CYP1A2; assay: CYP1A2 luminescent (P450-Glo) activity assay in rat hepatocytes; assay type: cell-based; parameters: endogenous in cells; host or cells: rat hepatocytes; details: positive control at 10 µM
Method: as §4

[10] = inhibitors at 50 µM, vs untreated control

Row | Compound | depletion percentage of the parent compound [1] | depletion percentage of the parent compound [2] | depletion percentage of the parent compound [3] | IC50 [4] | CYP1A2 in the cynomolgus monkey microsomal model [4] | rat hepatic microsomal CYP1A2 isoenzyme activity [5, 10] | beagle hepatic microsomal CYP1A2 isoenzyme activity [6, 10] | beagle hepatic microsomal CYP1A2 isoenzyme activity ([6]; reference inhibitor at 6 µM) | CYP1A2 activity in beagle hepatocytes [7] | CYP1A2 activity in cynomolgus monkey hepatocytes [8] | CYP1A2 activity in rat hepatocytes [9] | rat hepatic microsomal CYP1A2 isoenzyme activity ([5]; reference inhibitor at 6 µM)
1 | COc1ccc(-c2cccc(S(=O)(=O)N[C@@H](Cc3cccc(C(=N)N)c3)C(=O)N3CCC(NC(=O)NC4CCCCC4)CC3)c2)c(OC)c1 [MI-463] | 15.1 ± 6.5% | 15.7 ± 8% | 17.7 ± 4.6% | 2400 ± 1400 nM | inhibited | suppressed | – | – | – | – | – | –
2 | N=C(N)c1cccc(C[C@H](NS(=O)(=O)c2cccc(-c3cc(CO)ccc3Cl)c2)C(=O)N2CCC(CCNC(=O)NC3CCCCC3)CC2)c1 [MI-482] | 31.4 ± 1.1% | 39.3 ± 6% | 15.1 ± 7.3% | 210 ± 90 nM | inhibited | did not inhibit CYP1A2 function | reduced the activity of CYP1A2 | – | – | – | – | –
3 | O=c1cc(-c2ccccc2)oc2c1ccc1ccccc12 [α-naphthoflavone, reference compound] | – | – | – | – | – | – | – | significantly suppressed CYP1A2 activities | significantly suppress CYP1A2 activities | significantly suppress CYP1A2 activities | significantly suppress CYP1A2 activities | significantly suppressed CYP1A2 activities
